Among the test systems are HOP-62; LOX IMVI; A549; CAKI-1; ACHN; SW-620; SF-268; OVCAR-4; RXF 393; MOLT-4; RPMI-8226; T47D; NCI-H226; A498; SF-295; OVCAR-5; OVCAR-3; SN12C; 786-0; COLO 205.
Common to all, as to assay: growth of human tumour cells (NCI), 48 h

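96-well plates; 48 h exposure; 5 concentrations. Endpoints by linear interpolation between flanking doses. Not reached: highest tested concentration assigned. At the GI50, growth is halved.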 Activity calls are given as the source filed them. No stated cut-off is given here; in the data, active = GI50 up to about 1.1 µM and inactive = higher.

As to `CS(=O)(=O)OCC1CN(S(C)(=O)=O)c2cc(O)ccc21` (stereo not given), the GI50 was 2.47 µM (inactive) in the assay on HOP-62; 3.17 µM (inactive) in the assay with LOX IMVI; 3.43 µM (inactive) in the assay with A549; 3.42 µM (inactive) with CAKI-1; 3.18 µM (inactive) with ACHN; 2.84 µM (inactive) in the assay with SW-620. For the same molecule, the GI50 was 0.524 µM (active) in the assay with SF-268; 2.67 µM (inactive) in the assay on OVCAR-4; 1.19 µM (inactive) in the assay on RXF 393; 1.22 µM (inactive) in the assay on MOLT-4; 1.87 µM (inactive) in the assay with RPMI-8226; 0.498 µM (active) in the assay with T47D. For the same molecule, the GI50 is 3.33 µM (inactive) with NCI-H226; 2.64 µM (inactive) with A498; 3.42 µM (inactive) in the assay on SF-295; 2.84 µM (inactive) with OVCAR-5; 2.82 µM (inactive) in the assay with OVCAR-3; 2.92 µM (inactive) in the assay on SN12C. Also, the figures for the GI50 with 786-0 and with COLO 205 were 3.67 µM (inactive) and 2.3 µM (inactive), respectively.

For `O=C1NC(=S)NC(=O)C1C(c1ccccc1[N+](=O)[O-])C1C(=O)NC(=S)NC1=O.c1ccncc1`, the GI50 in the assay on HOP-62, with LOX IMVI, in the assay with A549, with CAKI-1, in the assay with ACHN and in the assay with SW-620 was > 100 µM (inactive) each time. Besides, the GI50 in the assay with SF-268, in the assay on OVCAR-4, with RXF 393, in the assay on MOLT-4, in the assay on RPMI-8226 and with T47D was > 100 µM (inactive) each time. For the same molecule, the GI50 in the assay with NCI-H226, in the assay on A498, in the assay on SF-295, with OVCAR-5, in the assay with OVCAR-3 and in the assay with SN12C was > 100 µM (inactive) throughout. In addition, the GI50 in the assay on 786-0 and with COLO 205 was > 100 µM (inactive) throughout.

Take `Cc1ccc2nc3ccccc3c(C3C4C(=O)N(c5ccc(F)cc5)C(=O)C4ON3C(C(N)=O)c3ccccc3)c2c1` (stereo not given): the GI50 was 71.8 µM (inactive) in the assay with HOP-62; 24.5 µM (inactive) in the assay with LOX IMVI; 29.4 µM (inactive) with A549; 24.4 µM (inactive) with CAKI-1; 49.3 µM (inactive) in the assay on ACHN; 37.1 µM (inactive) with SW-620. Further, the GI50 is 47.1 µM (inactive) with SF-268; 41.1 µM (inactive) in the assay with OVCAR-4; 30.2 µM (inactive) in the assay on RXF 393; 41.6 µM (inactive) in the assay on MOLT-4; 25.3 µM (inactive) in the assay with RPMI-8226; 84.1 µM (inactive) with T47D. For the same molecule, the GI50 with NCI-H226 is 46.3 µM (inactive); in the assay on A498, 41.1 µM (inactive); in the assay with SF-295, 28.8 µM (inactive); in the assay with OVCAR-5 it was 25.8 µM (inactive); in the assay with OVCAR-3, 26.7 µM (inactive); in the assay with SN12C, 33 µM (inactive). The GI50 in the assay on 786-0 was 37.9 µM (inactive); with COLO 205 it was 17.5 µM (inactive).

Turning to `O=c1[nH]nc(-c2ccccc2)n1O`, the GI50 with HOP-62, in the assay with LOX IMVI, in the assay with A549, in the assay on CAKI-1, in the assay with ACHN and in the assay on SW-620 was > 100 µM (inactive) in each case. Besides, the GI50 with SF-268 is 91.4 µM (inactive); with OVCAR-4, > 100 µM (inactive); with RXF 393, > 100 µM (inactive); with MOLT-4, > 100 µM (inactive); with RPMI-8226, > 100 µM (inactive); with T47D, > 100 µM (inactive). Besides, the GI50 with NCI-H226, in the assay on A498, with SF-295, in the assay on OVCAR-5, in the assay with OVCAR-3 and in the assay with SN12C was > 100 µM (inactive) in each case. In addition, the GI50 in the assay with 786-0 and in the assay with COLO 205 was > 100 µM (inactive) throughout.

In the case of `NC(Cc1ccnnc1)C(=O)O` (stereo not given), the GI50 in the assay on HOP-62, in the assay on LOX IMVI, with A549, with CAKI-1, in the assay on ACHN and in the assay with SW-620 was > 100 µM (inactive) throughout. The GI50 in the assay on SF-268, with OVCAR-4, in the assay with RXF 393, with MOLT-4, with RPMI-8226 and in the assay on T47D was > 100 µM (inactive) in each case. Besides, the GI50 with NCI-H226, in the assay with A498, in the assay with SF-295, with OVCAR-5, in the assay on OVCAR-3 and in the assay with SN12C was > 100 µM (inactive) in each case. In addition, the GI50 in the assay with 786-0 and in the assay on COLO 205 was > 100 µM (inactive) throughout.

In the case of `Nc1nc(Cl)c(C=O)c(NCC2(CO)CC(CCc3ccccc3)C2)n1` (stereo not given), the GI50 in the assay with HOP-62 is 14.5 µM (inactive); in the assay on LOX IMVI it was 2.95 µM (inactive); in the assay on A549, 12.1 µM (inactive); in the assay on CAKI-1, 1.55 µM (inactive); in the assay with ACHN, 12.7 µM (inactive); in the assay on SW-620 it was 4.1 µM (inactive). Also, the GI50 with SF-268 was 15.4 µM (inactive); in the assay on OVCAR-4, 2 µM (inactive); in the assay with RXF 393, 14.2 µM (inactive); with MOLT-4, 2.62 µM (inactive); in the assay with RPMI-8226 it was 12.4 µM (inactive); in the assay on T47D, 1.34 µM (inactive). The GI50 in the assay with NCI-H226 was 12.6 µM (inactive); with A498 it was 11.7 µM (inactive); with SF-295, 13.3 µM (inactive); in the assay on OVCAR-5, 15.8 µM (inactive); in the assay on OVCAR-3, 11.3 µM (inactive); with SN12C, 6.15 µM (inactive). In addition, the GI50 with 786-0 was 21 µM (inactive); in the assay with COLO 205 it was 11.6 µM (inactive).

As to `CCCCCCCCCCCC[C@@H](O)[C@H]1CC[C@H]([C@H](O)CC[C@H](O)[C@@H]2CC[C@@H](CCCCCCCC3=C[C@H](C)OC3=O)O2)O1`, the GI50 in the assay with HOP-62 was > 50 µM (inactive); with LOX IMVI, > 27.2 µM (inactive); with A549, > 50 µM (inactive); with CAKI-1, > 50 µM (inactive); with ACHN it was > 50 µM (inactive); in the assay on SW-620 it was > 50 µM (inactive). In addition, the GI50 with SF-268 was > 50 µM (inactive); in the assay with OVCAR-4, > 50 µM (inactive); with RXF 393 it was > 50 µM (inactive); in the assay on MOLT-4 it was > 15.2 µM (inactive); in the assay on RPMI-8226, > 37.2 µM (inactive); in the assay on T47D it was > 50 µM (inactive). Also, the GI50 in the assay on NCI-H226 is > 50 µM (inactive); in the assay with A498, > 50 µM (inactive); in the assay on SF-295, > 12.6 µM (inactive); in the assay with OVCAR-5 it was > 50 µM (inactive); in the assay on OVCAR-3, > 50 µM (inactive); with SN12C it was 3.99 µM (inactive). For the same molecule, the GI50 in the assay on 786-0 and in the assay with COLO 205 was > 50 µM (inactive) throughout.

These data come from ChEMBL document CHEMBL1201862, “PubChem BioAssay data set” (2004).
